# From patent US20230167073A1 (Teijin Pharma Limited, priority 2020, published 2023)
# Molecular target: T1, Human TRPC6 (Homo sapiens, UniProt Q9Y210)
# T1 construct: expressed in transfected cells
# T1 sequence (Q9Y210 1-931): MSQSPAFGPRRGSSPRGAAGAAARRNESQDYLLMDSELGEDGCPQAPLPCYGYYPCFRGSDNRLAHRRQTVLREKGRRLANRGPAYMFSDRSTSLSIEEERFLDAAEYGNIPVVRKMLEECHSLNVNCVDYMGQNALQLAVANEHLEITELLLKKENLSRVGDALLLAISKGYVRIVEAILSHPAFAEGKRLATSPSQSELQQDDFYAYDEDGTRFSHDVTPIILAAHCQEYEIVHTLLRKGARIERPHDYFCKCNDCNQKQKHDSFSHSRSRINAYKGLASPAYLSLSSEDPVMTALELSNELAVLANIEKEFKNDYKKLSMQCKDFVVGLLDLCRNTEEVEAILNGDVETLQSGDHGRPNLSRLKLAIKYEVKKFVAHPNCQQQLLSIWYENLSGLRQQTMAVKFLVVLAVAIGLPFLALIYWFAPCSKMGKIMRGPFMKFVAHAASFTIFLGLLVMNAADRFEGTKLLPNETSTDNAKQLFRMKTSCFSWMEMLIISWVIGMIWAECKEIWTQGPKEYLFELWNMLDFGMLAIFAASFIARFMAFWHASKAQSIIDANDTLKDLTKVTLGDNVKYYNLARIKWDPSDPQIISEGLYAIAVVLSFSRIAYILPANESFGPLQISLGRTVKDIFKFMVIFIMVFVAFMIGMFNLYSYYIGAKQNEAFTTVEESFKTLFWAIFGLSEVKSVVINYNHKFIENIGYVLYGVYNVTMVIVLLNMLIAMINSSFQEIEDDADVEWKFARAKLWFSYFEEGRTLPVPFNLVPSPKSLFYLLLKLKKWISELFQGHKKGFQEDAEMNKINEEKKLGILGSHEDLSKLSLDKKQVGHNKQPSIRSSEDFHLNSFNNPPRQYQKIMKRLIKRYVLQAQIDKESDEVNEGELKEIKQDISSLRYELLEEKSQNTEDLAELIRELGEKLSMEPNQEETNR
# Test: Evaluation of TRPC6 channel inhibitory activity (1), FLIPR Calcium 5 Assay Kit, OAG stimulation (Compound Nos. 1-1293)
# Assay type: cell-based
# Settings: Human TRPC6 stably-expressing cells, OAG 30 μM, FLIPR Calcium 5 Assay Kit; read-out: Inhibitory activity (pIC50 class) (converted)
# In short: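 Calcium influx read by FLIPR fluorescence in cells stably expressing human TRPC6, dye-loaded 30 min. Compounds preincubated 20 min, then OAG stimulation at 30 μM final. Inhibition fitted by four-parameter logistic regression to give pIC50, reported as +/++/+++ categories.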
row,Structure (SMILES),IC50 [nM]
1,"Cn1nc(N2CCOCC2)cc1C(=O)c1cc(C#N)ccc1-c1ncc(CN)cn1 [Compound No. 1028, 4-[5-(Aminomethyl)pyrimidin-2-yl]-3-(2-methyl-5-morpholin-4-ylpyrazole-3-carbonyl)benzonitrile]",< 10
2,"Cc1nc(N2CCOCC2)sc1C(=O)c1cc(C#N)ccc1-c1ncc(CN)cn1 [Compound No. 1064, 4-[5-(Aminomethyl)pyrimidin-2-yl]-3-(4-methyl-2-morpholin-4-yl-1,3-thiazole-5-carbonyl)benzonitrile]",10 to 1000
3,"Cc1nc(C(C)c2cc(C#N)ccc2-c2ccc(CCN)cc2)cc(N2CCOCC2)n1 (stereo not drawn) [Compound No. 1226, 4-[4-(2-Aminoethyl)phenyl]-3-[1-(2-methyl-6-morpholin-4-ylpyrimidin-4-yl)ethyl]benzonitrile]",10 to 1000
4,"Cc1nc(N2CCOCC2)cc(C2(c3cc(C#N)ccc3-c3ccc(CCN)cc3)CC2)n1 [Compound No. 1227, 4-[4-(2-Aminoethyl)phenyl]-3-[1-(2-methyl-6-morpholin-4-ylpyrimidin-4-yl)cyclopropyl]benzonitrile]",10 to 1000
5,"COC(c1cc(-c2nccs2)no1)c1cc(C#N)ccc1-c1ccc(CCN)cc1 (stereo not drawn) [Compound No. 1232, 4-[4-(2-Aminoethyl)phenyl]-3-[methoxy-[3-(1,3-thiazol-2-yl)-1,2-oxazol-5-yl]methyl]benzonitrile]",> 1000
6,"N#Cc1ccc(-c2ccc(CCN)cc2)c(Sc2cnnc(N3CCCCC3)c2)c1 [Compound No. 1240, 4-[4-(2-Aminoethyl)phenyl]-3-(6-piperidin-1-ylpyridazin-4-yl)sulfanylbenzonitrile]",< 10
7,"N#Cc1ccc(-n2cc(CCN)cn2)c(Sc2cnnc(N3CCCCC3)c2)c1 [Compound No. 1246, 4-[4-(2-Aminoethyl)pyrazol-1-yl]-3-(6-piperidin-1-ylpyridazin-4-yl)sulfanylbenzonitrile]",10 to 1000
8,"Cn1nc(-c2ccccc2)cc1Oc1cc(C#N)ncc1-c1ccc(CCN)cn1 [Compound No. 1277, 5-[5-(2-Aminoethyl)pyridin-2-yl]-4-(2-methyl-5-phenylpyrazol-3-yl)oxypyridine-2-carbonitrile]",10 to 1000
9,"Cn1nc(-c2ccccc2)cc1Oc1nc(C#N)ccc1-c1ccc(CCN)cn1 [Compound No. 1279, 5-[5-(2-Aminoethyl)pyridin-2-yl]-6-(2-methyl-5-phenylpyrazol-3-yl)oxypyridine-2-carbonitrile]",< 10
10,"Cn1nc(-c2ccccn2)cc1Oc1cc(C#N)cnc1-c1ccc(CN)cn1 [Compound No. 1289, 6-[5-(Aminomethyl)pyridin-2-yl]-5-(2-methyl-5-pyridin-2-ylpyrazol-3-yl)oxypyridine-3-carbonitrile]",> 1000
11,"CC(C)(N)Cc1ccc(-c2ccc(C#N)cc2Oc2cnnc(N3CCOCC3)c2)cc1 [compound 297, 4-[4-(2-amino-2-methylpropyl)phenyl]-3-(6-morpholin-4-ylpyridazin-4-yl)oxybenzonitrile]",10 to 1000
12,"Cc1nc(Oc2cc(C#N)ccc2-n2cc(CN)cn2)cc(N2CCOCC2)n1 [compound 298, 4-[4-(aminomethyl)pyrazol-1-yl]-3-(2-methyl-6-morpholin-4-ylpyrimidin-4-yl)oxybenzonitrile]",10 to 1000

# Second part, the compound after the results:
row,IC50 [nM],Structure (SMILES)
1,< 10,"Cn1nc(C(F)(F)F)cc1Oc1cc(C#N)ccc1-c1ncc(CN)cn1 [Compound No. 811, 4-[5-(Aminomethyl)pyrimidin-2-yl]-3-[2-methyl-5-(trifluoromethyl)pyrazol-3-yl]oxybenzonitrile]"
2,< 10,"CCN(CC(F)F)c1cc(Oc2cc(C#N)ccc2-c2ncc(CCN)cn2)n(C)n1 [Compound No. 875, 4-[5-(2-Aminoethyl)pyrimidin-2-yl]-3-[5-[2,2-difluoroethyl(ethyl)amino]-2-methylpyrazol-3-yl]oxybenzonitrile]"
3,10 to 1000,"Cn1nc(-c2cnccn2)cc1Oc1cc(C#N)ccc1-c1ncc(CN)cn1 [Compound No. 931, 4-[5-(Aminomethyl)pyrimidin-2-yl]-3-(2-methyl-5-pyrazin-2-ylpyrazol-3-yl)oxybenzonitrile]"
4,< 10,"Cc1nn(CC(C)C)cc1Oc1cc(F)ccc1-c1ncc(CCN)cn1 [Compound No. 966, 2-[2-[4-Fluoro-2-[3-methyl-1-(2-methylpropyl)pyrazol-4-yl]oxyphenyl]pyrimidin-5-yl]ethanamine]"
5,10 to 1000,"Cc1c(Oc2cc(F)ccc2-c2ncc(CCN)cn2)cnn1CC(C)C [Compound No. 967, 2-[2-[4-fluoro-2-[5-methyl-1-(2-methylpropyl)pyrazol-4-yl]oxyphenyl]pyrimidin-5-yl]ethanamine]"
6,< 10,"Cn1nc(C(C)(C)C)cc1C(=O)c1cc(C#N)ccc1-c1ncc(CN)cn1 [Compound No. 1030, 4-[5-(Aminomethyl)pyrimidin-2-yl]-3-(5-tert-butyl-2-methylpyrazole-3-carbonyl)benzonitrile]"
7,< 10,"Cc1cc(C(=O)c2cc(C#N)ccc2-c2ncc(CCN)cn2)cc(N2CCOCC2)n1 [Compound No. 1042, 4-[5-(2-Aminoethyl)pyrimidin-2-yl]-3-(2-methyl-6-morpholin-4-ylpyridine-4-carbonyl)benzonitrile]"
8,< 10,"N#Cc1ccc(-c2ccc(CCN)cn2)c(Cn2cnc(-c3ccccc3)c2)c1 [Compound No. 1131, 4-[5-(2-Aminoethyl)pyridin-2-yl]-3-[(4-phenylimidazol-1-yl)methyl]benzonitrile]"
9,> 1000,"Cc1nc(CN2CCCCC2)cn1Cc1cc(C#N)ccc1-c1ncc(CCN)cn1 [Compound No. 1179, 4-[5-(2-Aminoethyl)pyrimidin-2-yl]-3-[[2-methyl-4-(piperidin-1-ylmethyl)imidazol-1-yl]methyl]benzonitrile]"
10,< 10,"N#Cc1ccc(-c2ncc(CCN)cn2)c(Cn2cc(C3CC3)nn2)c1 [Compound No. 1187, 4-[5-(2-Aminoethyl)pyrimidin-2-yl]-3-[(4-cyclopropyltriazol-1-yl)methyl]benzonitrile]"
11,< 10,"CC(C)Cn1cc(Cc2cc(C#N)ccc2-c2ncc(CCN)cn2)cn1 [Compound No. 1195, 4-[5-(2-Aminoethyl)pyrimidin-2-yl]-3-[[1-(2-methylpropyl)pyrazol-4-yl]methyl]benzonitrile]"
12,10 to 1000,"N#Cc1ccc(-c2ncc(CCN)cn2)c(Cn2cc(N3CCCC3)cn2)c1 [Compound No. 1198, 4-[5-(2-Aminoethyl)pyrimidin-2-yl]-3-[(4-pyrrolidin-1-ylpyrazol-1-yl)methyl]benzonitrile]"
13,< 10,"Cn1nc(C(C)(C)C)cc1C(OCC#N)c1cc(C#N)ccc1-c1ncc(CCN)cn1 (stereo not drawn) [Compound No. 1237, 4-[5-(2-Aminoethyl)pyrimidin-2-yl]-3-[(5-tert-butyl-2-methylpyrazol-3-yl)-(cyanomethoxy)methyl]benzonitrile]"
14,> 1000,"N#Cc1ccc(-c2ncc(CCN)cn2)c([S+]([O-])c2cnnc(N3CCCCC3)c2)c1 (stereo not drawn) [Compound No. 1276, 4-[5-(2-Aminoethyl)pyrimidin-2-yl]-3-(6-piperidin-1-ylpyridazin-4-yl)sulfinylbenzonitrile]"
15,< 10,"Cc1nc(Oc2cc(C#N)ccc2-c2ncc(CCN)cn2)cc(N2CC(F)(F)C2)n1 [compound 296, 4-[5-(2-aminoethyl)pyrimidin-2-yl]-3-[6-(3,3-difluoroazetidin-1-yl)-2-methylpyrimidin-4-yl]oxybenzonitrile]"
